Source: patent US8632914B2, “Triazolium and imidazolium salts and uses thereof” (University Health Network, priority 2008, dated 2014)
Where two headings read alike, the source gives them in different places.

Experiments:
[1] = system: P. falciparum; test: Anti-Plasmodium activity: viability of P. falciparum cultures (pLDH enzyme assay); assay type: cell-based; conditions: read-out: IC50 (μM) P. falciparum
Protocol: P. falciparum cultures were grown in O+ blood obtained by venipuncture of volunteers. Cultures of the laboratory line ItG were maintained by the method of Trager and Jensen (Trager, W.; Jensen, J. Science 1976, 193, 673) using RPM, 1640 supplemented with 10% human serum (a kind gift obtained under ethical consent from the Chemo Day Care department of the Princess Margaret Hospital, Toronto, Canada) and 50 μM hypoxanthine (RPMI-A). The effects of the test compounds on the viability of P. falciparum cultures were determined using a Lactate Dehydrogenase (LDH) enzyme assay specific to the enzyme found in Plasmodium falciparum (pLDH) (Prudhomme, J. G.; Sherman, I. W. J Immunol Methods 1999, 229(1-2), 169; Makler, M. T.; Ries, J. M.; Williams, J. A.; Bancroft, J. E.; Piper, R. C.; Gibbins, B. L.; Hinrichs, D. J. Am J Trop Med Hyg 1993, 48(6), 739). Briefly, compounds to be tested were dissolved in DMSO afford a solution having a concentration of 10 mg/mL. Two-fold serial dilutions were then produced in 50 μL of RPMI-A in a 96 well plate and then 50 μL of parasite culture (2% hematocrit, 2% parasitemia) were added to each well and the plates were then incubated at 37° C. in 95% N2, 3% CO2, and 2% O2 for 72 hr. The contents of the wells were then re-suspended using a multi-channel pipettor and a 15 μL sample was removed from each well and was added to 100 μL of pLDH enzyme assay mixture (Prudhomme, J. G.; Sherman, I. W. J Immunol Methods 1999, 229(1-2), 169). After 1 hr the absorbance of the wells at 650 nm was determined using a ThermoMax microplate reader (Molecular Devices, Sunnyvale, Calif.). The IC50 values of individual compounds were determined using a non-linear regression analysis of the data^19 using the computer program SigmaPlot (Jandel Scientific) and are reported in Table 1. The IC50 values represent the mean±standard error calculated from four independent determinations. To verify if the poor viability of the cultures was related to inhibited merozoite invasion, samples were taken from treated wells and the presence of extracellular merozoites was confirmed by microscopy.

[2] = system: CHO cells; test: Viability of CHO cells (MTT); assay type: cell-based; conditions: Cricetulus griseus, read-out: IC50 (μM) CHO cells
Protocol: CHO cells (ATCC, Manassas, Va.) were grown in RPMI-1640 supplemented with 10% fetal calf serum (Sigma, St. Louis, Mo.), 25 mM HEPES and gentimicin (RPMI-10). Cells were seeded in 96 well plates and grown to 50% confluency in 100 μL of RPMI-10 per well prior to the addition of either DMSO alone, or a 10 mg/mL solution of a test compound of the disclosure in DMSO. Compound gradients were prepared by adding 90 μL of RPMI-10 mixed with 10 μL of compound solution to the first well in the series, mixing, transferring 100 μL to the next well, and repeating until the next-to-last well was reached. After 48 hrs, the viability of the cells was determined by discarding the media in the wells and adding 100 μL of 10 mg/mL of 3-[4,5-dimethylthiazol-2-yl]-2,5-diphenyltetrazolium bromide (MTT, Sigma, St. Louis, Mo.) in RPMI-10, incubating the plates for a further hour, and then removing the media and adding 100 μL of DMSO and reading the absorbance at 650 nm (Campling, B. G.; Pym, J.; Galbraith, P. R.; Cole, S. P. Leuk Res 1988, 12(10), 823). The IC50 values of individual compounds were determined using a non-linear regression analysis of the dose-response curve using the computer program SigmaPlot (Jandel Scientific) and are reported in Table 1.

[3] = strain line ItG, 72 hr incubation, pLDH assay, mean of four determinations ± standard error
[4] = CHO cells, 48 hrs, MTT, mean of four determinations ± standard error

Row | SMILES | IC50 [1, 3] [µM] | melting point [°C] | IC50 [2, 4] [µM] | IC50 ([1]; 72 h) [µM] | IC50 ([2]; CHO, 48 h) [µM]
1 | C[n+]1ccn(CCCOc2ccc(OCCCn3cc[n+](C)c3)cc2)c1 [QT123, 1,4-Bis[3-(3-methylimidazolium-1-yl)propoxy]benzene diiodide] | 0.045 ± 0.004 |  | 113 ± 12 |  | 
2 | C[n+]1ccn(CCCCCCCCCCCCCCCCCCCCn2cc[n+](C)c2)c1 [QT116, 1,20-Bis-(3-methylimidazolium-1-yl)eicosane diiodide] | 0.0021 ± 0.0005 | 78 to 80 | 1.4 ± 0.2 |  | 
3 | O=[N+]([O-])c1ccc(Cn2cc[n+](Cc3ccc([N+](=O)[O-])cc3)c2)cc1 [QT85, 1,3-Bis-(4-nitrobenzyl)imidazolium bromide] | 9 ± 2 |  | 227 ± 7 |  | 
4 | COc1ccc(Cn2cc[n+](Cc3ccc(OC)cc3)c2)cc1 [QT79, 1,3-Bis-(4-methoxybenzyl)imidazolium chloride] |  |  |  | 5 ± 1 | 30.6 ± 0.7
5 | C[n+]1ccn(CCCCCCCCCCCCn2cc[n+](C)c2)c1 [QT89, 1,12-Bis-(3-methylimidazolium-1-yl)dodecane diiodide] | 0.009 ± 0.001 |  | 26 ± 5 |  | 
6 | C[n+]1ccn(CCCCCCn2cc[n+](C)c2)c1 [QT87, 1,6-Bis-(3-methylimidazolium-1-yl)hexane diiodide] | 2.6 ± 0.8 | 156 to 157 | 146 ± 14 |  | 
7 | C[n+]1cn(-c2ccc(-c3ccc(-n4c[n+](C)c5ccccc54)cc3)cc2)c2ccccc21 [QT110, 4,4′-Bis-(3-methylbenzimidazolium-1-yl)biphenyl diiodide] | 0.07 ± 0.01 |  | 98 ± 24 |  | 
8 | Clc1ccc(Cn2cc[n+](Cc3ccc(Cl)cc3)c2)cc1 [QT80, 1,3-Bis-(4-chlorobenzyl)imidazolium chloride] |  |  |  | 9 ± 2 | 105 ± 1
9 | Fc1ccc(Cn2cc[n+](Cc3ccc(F)cc3)c2)cc1 [QT92, 1,3-Bis-(4-fluorobenzyl)imidazolium bromide] | 17 ± 3 |  | 56 ± 4 |  | 
10 | Brc1ccccc1Cn1cc[n+](Cc2ccccc2Br)c1 [QT82, 1,3-Bis-(2-bromobenzyl)imidazolium bromide] | 1.4 ± 0.6 |  | 125 ± 10 |  | 
11 | C[n+]1ccn(-c2ccc(-n3cc[n+](C)c3)cc2)c1 [QT114, 1,4-Bis-(3-methylimidazolium-1-yl)benzene diiodide] | 11.2 ± 0.5 |  | 317 ± 64 |  | 
12 | Clc1cccc(Cn2cc[n+](Cc3cccc(Cl)c3)c2)c1 [QT74, 1,3-Bis-(3-chlorobenzyl)imidazolium bromide] | 3.3 ± 0.4 |  | 334.2 ± 0.4 |  | 
13 | C[n+]1ccn(CCCCCCCCCCCCCCCn2cc[n+](C)c2)c1 [QT101, 1,15-Bis-(3-methylimidazolium-1-yl)pentadecane diiodide] | 0.002 ± 0.001 |  | 1.2 ± 0.2 |  | 
14 | Cl.Cl.c1cn(CCCCCCCCn2ccnc2)cn1 |  | 176 to 177 |  |  | 
15 | O=[N+]([O-])c1ccc(C[n+]2ccn(-c3ccc(-c4ccc(-n5cc[n+](Cc6ccc([N+](=O)[O-])cc6)c5)cc4)cc3)c2)cc1 [QT103, 4,4′-Bis-[3-(4-nitrobenzyl)-1H-imidazolium-1-yl]biphenyl dibromide] | 0.026 ± 0.003 |  | 14 ± 2 |  | 
16 | Cn1cc[n+](C)c1 [QT70, 1,3-Dimethylimidazolium iodide] | 543 ± 66 |  | 894 ± 19 |  | 
17 | Cl.Cl.c1cn(CCCCCCCCCCCCCCCn2ccnc2)cn1 |  | 98 to 99 |  |  | 

Now from value to compound, other results behind:

Row | IC50 [1, 3] [µM] | melting point [°C] | SMILES | IC50 [2, 4] [µM] | IC50 ([1]; 72 h) [µM] | IC50 ([2]; CHO, 48 h) [µM]
18 | 16 ± 1 |  | c1ccc(Cn2cc[n+](Cc3ccccc3)c2)cc1 [QT68, 1,3-Dibenzylimidazolium bromide] | 191 ± 3 |  | 
19 | 0.082 ± 0.009 |  | C[n+]1ccn(CCCCCCCCCCn2cc[n+](C)c2)c1 [QT88, 1,10-Bis-(3-methylimidazolium-1-yl)decane diiodide] | 57 ± 5 |  | 
20 | 1.05 ± 0.06 |  | Brc1cccc(Cn2cc[n+](Cc3cccc(Br)c3)c2)c1 [QT83, 1,3-Bis-(3-bromobenzyl)imidazolium bromide] | 132 ± 22 |  | 
21 | 0.9 ± 0.4 |  | c1ccc2cc(Cn3cc[n+](Cc4ccc5ccccc5c4)c3)ccc2c1 [QT81, 1,3-Bis-(naphthalen-2-yl-methyl)imidazolium bromide] | 27 ± 1 |  | 
22 | 2 ± 0.2 |  | Clc1ccccc1Cn1cc[n+](Cc2ccccc2Cl)c1 [QT90, 1,3-Bis-(2-chlorobenzyl)imidazolium bromide] | 110 ± 23 |  | 
23 | 0.12 ± 0.04 |  | C[n+]1ccn(Cc2ccc(-c3ccc(Cn4cc[n+](C)c4)cc3)cc2)c1 [QT113, 4,4′-Bis-(3-methylimidazolium-1-yl-methyl)biphenyl diiodide] | 125 ± 13 |  | 
24 | 0.73 ± 0.03 |  | Brc1ccc(Cn2cc[n+](Cc3ccc4ccccc4c3)c2)cc1 [QT95, 1-(4-Bromobenzyl)-3-(naphthalen-2-ylmethyl)imidazolium bromide] | 27 ± 5 |  | 
25 | 2.9 ± 0.9 |  | Brc1ccc(C[n+]2ccn(Cc3ccccc3)c2)cc1 [QT75, 1-Benzyl-3-(4-bromobenzyl)imidazolium bromide] | 484.5 ± 0.9 |  | 
26 | 4.7 ± 0.9 |  | C[n+]1ccn(CCCCCCCCn2cc[n+](C)c2)c1 [QT71, 1,8-Bis-(3-methylimidazolium-1-yl)octane diiodide] | 452 ± 49 |  | 
27 | 0.5 ± 0.1 |  | O=C(Cn1cc[n+](CC(=O)c2ccc(Cc3ccccc3)cc2)c1)c1ccc(Cc2ccccc2)cc1 [QT97, 1,3-Bis-[2-oxo-2-(4-benzylphenyl)ethyl]imidazolium bromide] | 4.3 ± 0.3 |  | 
28 |  | 143 to 144 | Cl.Cl.c1cn(CCCCCCCCCCn2ccnc2)cn1 |  |  | 
29 |  | 58 to 59 | c1cn(CCCCCCCCCCCCCCCCCCCCn2ccnc2)cn1 [QT-115, 1,20-Bis-(1H-imidazol-1-yl)eicosane] |  |  | 
30 | 2.6 ± 0.1 |  | O=C(Cn1cc[n+](CC(=O)c2ccc(Cl)cc2)c1)c1ccc(Cl)cc1 [QT91, 1,3-Bis-[2-oxo-2-(4-chlorophenyl)ethyl]imidazolium bromide] | 53 ± 2 |  | 
31 | 1.4 ± 0.1 |  | c1ccc(Cn2c[n+](Cc3ccccc3)c(-c3ccccc3)c2-c2ccccc2)cc1 [QT105, 1,3-dibenzyl-4,5-diphenyl-1H-imidazolium bromide] | 21 ± 2 |  | 
32 | 0.35 ± 0.06 |  | Ic1ccc(Cn2cc[n+](Cc3ccc(I)cc3)c2)cc1 [QT78, 1,3-Bis-(4-iodobenzyl)imidazolium bromide] | 33 ± 1 |  | 
33 | 0.0061 ± 0.0006 |  | C[n+]1ccn(CCCCCCCCCCCn2cc[n+](C)c2)c1 [QT118, 1,11-Bis-(3-methylimidazolium-1-yl)undecane diiodide] | 42 ± 3 |  | 
34 | 3.1 ± 0.4 |  | Cn1c[n+](C)c(-c2ccccc2)c1-c1ccccc1 [QT104, 1,3-Dimethyl-4,5-diphenyl-1H-imidazolium iodide] | 385 ± 42 |  | 
35 | 67 ± 22 |  | C[n+]1ccn(CCCCn2cc[n+](C)c2)c1 [QT86, 1,4-Bis-(3-methylimidazolium-1-yl)butane diiodide] | 122 ± 3 |  | 
36 |  | 142 to 143 | Cl.Cl.c1cn(CCCCCCCCCCCCCCn2ccnc2)cn1 |  |  | 
37 | 0.0032 ± 0.0002 |  | C[n+]1ccn(CCCCCCCCCCCCCCn2cc[n+](C)c2)c1 [QT107, 1,14-Bis-(3-methylimidazolium-1-yl)tetradecane diiodide] | 11 ± 2 |  | 
38 | 230 ± 83 |  | CCCn1cc[n+](C)c1 [QT73, 3-Methyl-1-propylimidazolium bromide] | 998 ± 83 |  | 
39 |  | 220 to 221 | Cl.Cl.c1cn(CCCCCCn2ccnc2)cn1 |  |  | 
